Experimental data from patent publication US20220168325A1, “METHODS TO PROMOTE CEREBRAL BLOOD FLOW IN THE BRAIN” (THE UNIVERSITY OF VERMONT, priority 2019, published 2022).

What was measured:
[1] = system: functional hyperemia; experiment: Whisker stimulation-induced functional hyperemia in vivo (laser Doppler flowmetry, somatosensory cortex); parameters: species or system TgNotch3^WT and TgNotch3^R169C mice; details: exogenous PIP2 (diC16-PIP2 systemically via femoral artery catheter), CADASIL model mice
[2] = molecular target: T1, Kir2.1 channel (Mus musculus, UniProt P35561); experiment: Patch-clamp Ba2+-sensitive Kir2.1 current in cECs from transgenic mice; assay type: cell-based, TgNotch3^WT and TgNotch3^R169C mice; parameters: freshly isolated capillary endothelial cells from TgNotch3^WT and TgNotch3^R169C brains; endogenous in cells; host or cells: freshly isolated brain capillary endothelial cells from TgNotch3^WT and TgNotch3^R169C mice (FVB/N background); details: CADASIL cECs
T1 sequence (P35561 1-428): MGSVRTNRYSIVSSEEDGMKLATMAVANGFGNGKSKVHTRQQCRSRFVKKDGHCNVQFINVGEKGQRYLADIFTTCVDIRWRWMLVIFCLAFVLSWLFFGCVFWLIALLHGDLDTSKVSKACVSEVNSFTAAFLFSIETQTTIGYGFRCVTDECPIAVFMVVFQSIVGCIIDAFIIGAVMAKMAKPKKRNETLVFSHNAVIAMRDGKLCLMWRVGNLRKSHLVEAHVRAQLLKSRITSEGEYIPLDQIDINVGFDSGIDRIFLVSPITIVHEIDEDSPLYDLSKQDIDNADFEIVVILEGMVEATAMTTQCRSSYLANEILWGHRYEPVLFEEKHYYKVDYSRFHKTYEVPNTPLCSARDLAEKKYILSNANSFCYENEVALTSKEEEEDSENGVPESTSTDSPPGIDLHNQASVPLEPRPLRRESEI

[3] = system: capillary-to-arteriole electrical signaling; experiment: Ex vivo CaPA preparation from transgenic mice: arteriolar tone and dilation to capillary 10 mM K+
[4] = system: intracerebral arterioles; experiment: Luminal diameter of isolated pressurized parenchymal arterioles; parameters: species or system TgNotch3^WT and TgNotch3^R169C mice; details: bath soluble PIP2 10 μM; TgNotch3^WT and TgNotch3^R169C arterioles
Method: FIGS. 21A and 21B show typical recordings of luminal diameter of pressurized parenchymal arterioles from TgNotch3^WT (control) and TgNotch3^R169C (CADASIL) mice. NS309 and U46619 are used to test the ability of the arteriole to dilate and constrict, respectively. Bath application of soluble PIP2 at 10 μM has little effect on arteriole diameter.

[5] = system: K+-evoked capillary hyperemia; experiment: In vivo two-photon imaging of K+-evoked capillary RBC flux through cranial window; parameters: species or system C57BL/6J mouse
[6] = molecular target: T1, Kir2.1 channel; experiment: Patch-clamp recording of Kir2.1 currents in freshly isolated brain capillary endothelial cells (cECs); details: perforated patch
[7] = system: capillary-to-arteriole electrical signaling; experiment: Ex vivo capillary-parenchymal arteriole (CaPA) preparation: upstream arteriolar dilation to 10 mM K+ on capillaries; parameters: species or system C57BL/6J mouse
Excerpt: Ex Vivo Capillary-Parenchymal Arteriole Preparation. The capillary-parenchymal arteriole (CaPA) preparation was obtained by dissecting parenchymal arterioles arising from the M1 region of the middle cerebral artery, leaving the attached capillary bed intact, as reported recently (Longden et al, “Capillary K^+-Sensing Initiates Retrograde Hyperpolarization to Increase Local Cerebral Blood Flow,” Nat. Neurosci. 20:717-726 (2017), which is hereby incorporated by reference in its entirety). Precapillary arteriolar segments were cannulated on glass micropipettes on a Living Systems Instrumentation pressure myograph, with one end occluded by a tie. The ends of the capillaries were then sealed by the downward pressure of an overlying glass micropipette. Application of pressure (40 mmHg) to the cannulated parenchymal arteriole segment in this preparation pressurized the entire tree and induced myogenic tone in the parenchymal arteriole segment. With this preparation, 10 mM K^+ was applied onto capillaries by pressure ejection from a glass micropipette (tip diameter, ˜5 μm) attached to a Picospritzer III (Parker) at ˜5 psi for 18 s. Luminal diameter in parenchymal arterioles was acquired in one region of the arteriolar segment at 15 Hz using IonWizard 6.2 edge-detection software (IonOptix). Changes in arteriolar diameter were calculated from the average luminal diameter measured over the last 10 s of stimulation and were normalized to the maximum dilatory responses in 0 mM Ca^2+ bath solution at the end of each experiment.
Capillary Kir2.1 channels sense increases in [K^+]o caused by increased neuronal activity and initiate a hyperpolarizing signal. By virtue of strong electrical coupling between endothelial cells, retrograde hyperpolarization ascends to upstream feeding arterioles to enhance cerebral blood flow to the site of signal initiation (Longden et al, “Capillary K^+-Sensing Initiates Retrograde Hyperpolarization to Increase Local Cerebral Blood Flow,” Nat. Neurosci. 20:717-726 (2017), which is hereby incorporated by reference in its entirety). […] During this lag period, Kir2.1 currents recorded in the perforated-patch configuration declined steadily (τdecay≈12 minutes), but K^+-mediated retrograde dilatory signaling remained intact until Kir2.1 currents reached ˜50% of their maximal amplitude (FIG. 7C).

[8] = bath-applied PGE2 1 μM or carbachol 10 μM

Kir2.1 current decline at X0 (12 minutes) ([6]; carbachol 10 μM) [%]	Time constant of exponential decay of Kir2.1 current (τdecay) ([6]; PGE2 2 μM or carbachol 10 μM applied at t0) [min]	Compound	Functional hyperemia in vivo [1]	Kir2-mediated current ([2]; exogenous soluble PIP2 10 μM (diC16-PIP2, 20 minutes pre-incubation))	Kir current ([2]; intracellular soluble PIP2 via patch pipette (10 μM diC8-PIP2))	Upstream arteriole response to 10 mM K+ on capillaries ([3]; CaPA from endothelial specific Kir2.1^-/- (Kir channel deficient) mice, HB-EGF or soluble PIP2 present)	Arteriolar dilation in response to capillary stimulation with 10 mM K+ ([3]; TgNotch3^R169C CaPA, 1 mM 4-AP, 30 ng/mL HB-EGF bath, or exogenous PIP2 bath)	Arteriole diameter [4]	K+-induced increase in capillary RBC flux ([5]; carbachol 0.6 μg/kg intravascular, t=20 minutes after injection, 10 mM K+, saline controls 52±12%) [%]	Baseline capillary RBC flux (before K+ application) ([5]; carbachol 0.6 μg/kg, over 30 minutes)	Lag phase (X0) before inhibition of capillary-mediated arteriolar dilation [7, 8]	Time constant of postplateau exponential decay of K+-induced dilation (τdecay) [7, 8]	K+-induced upstream arteriolar vasodilation ([7]; bath-applied PGE2 1 μM or carbachol 10 μM, 10 mM K+ on capillaries)	Parenchymal arteriolar diameter ([7]; carbachol, FIGS. 8A-8D)
		phosphatidylinositol 4,5-bisphosphate [soluble PIP2]	restored	increased Kir2-mediated current in cECs from CADASIL mice to values observed in control groups	counteracted the reduction in Kir current	absence of effect	restored	little effect						
~58	8	C[N+](C)(C)CCOC(N)=O [carbachol]							10±6	did not change	≈ 12 minutes	≈ 13 minutes	similarly suppressed	minimally altered parenchymal arteriolar diameter
